Assay results published in ChEMBL document CHEMBL1201862, “PubChem BioAssay data set” (2004).
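Cultured in 96-well plates, cells were exposed to test compound for 48 hours across five concentrations. Here, GI50 denotes the concentration required for 50% inhibition of growth.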 The source made the active and inactive calls. No stated cut-off is given here; in the data, active = GI50 up to about 1.1 µM and inactive = higher.

Tests used:
Assay in all cases: NCI tumour cell line growth inhibition, 48 h
[1] = system: 786-0
[2] = system: A498
[3] = system: A549
[4] = system: ACHN
[5] = system: CAKI-1
[6] = system: CCRF-CEM
[7] = system: COLO 205
[8] = system: DLD-1
[9] = system: DMS-114
[10] = system: EKVX
[11] = system: HCC 2998
[12] = system: HCT-116
[13] = system: HCT-15
[14] = system: HL-60
[15] = system: HOP-18
[16] = system: HOP-62
[17] = system: HOP-92
[18] = system: HT-29
[19] = system: IGROV-1
[20] = system: K562
[21] = system: KM-20L2
[22] = system: KM12
[23] = system: LOX IMVI
[24] = system: LXFL 529
[25] = system: M14
[26] = system: M19-MEL
[27] = system: MOLT-4
[28] = system: Malme-3M
[29] = system: NCI-H226
[30] = system: NCI-H23
[31] = system: NCI-H460
[32] = system: NCI-H522
[33] = system: OVCAR-3
[34] = system: OVCAR-4
[35] = system: OVCAR-5
[36] = system: OVCAR-8
[37] = system: RPMI-8226
[38] = system: RXF 393
[39] = system: RXF 631
[40] = system: SF-268
[41] = system: SF-295
[42] = system: SF-539
[43] = system: SK-MEL-28
[44] = system: SK-MEL-2
[45] = system: SK-MEL-5
[46] = system: SK-OV-3
[47] = system: SN12C
[48] = system: SNB-19
[49] = system: SNB-75
[50] = system: SNB-78
[51] = system: SR
[52] = system: SW-620
[53] = system: TK-10
[54] = system: U-251
[55] = system: UACC-257
[56] = system: UACC-62
[57] = system: UO-31
[58] = system: DMS-273
[59] = system: XF498

Structure (SMILES): COc1ccc2c(c1)c(=O)c1c(NCCN(C)C)ccc3nnn2c31
- GI50 [1]: 1.71 µM (inactive)
- GI50 [2]: 9.51 µM (inactive)
- GI50 [3]: 2.21 µM (inactive)
- GI50 [4]: 2.4 µM (inactive)
- GI50 [5]: 3.01 µM (inactive)
- GI50 [6]: 0.918 µM (active)
- GI50 [7]: 1.36 µM (inactive)
- GI50 [8]: 1.71 µM (inactive)
- GI50 [9]: 3.64 µM (inactive)
- GI50 [10]: 2.05 µM (inactive)
- GI50 [11]: 2.76 µM (inactive)
- GI50 [12]: 0.655 µM (active)
- GI50 [13]: 3.82 µM
- GI50 [14]: 1.82 µM (inactive)
- GI50 [15]: 0.504 µM (active)
- GI50 [16]: 2.82 µM (inactive)
- GI50 [17]: 2.19 µM (inactive)
- GI50 [18]: 1.57 µM (inactive)
- GI50 [19]: 3.33 µM (inactive)
- GI50 [20]: 1.6 µM (inactive)
- GI50 [21]: 1.15 µM (inactive)
- GI50 [22]: 1.11 µM (active)
- GI50 [23]: 1.33 µM (inactive)
- GI50 [24]: 2.91 µM (inactive)
- GI50 [25]: 3.99 µM (inactive)
- GI50 [26]: 6.61 µM (inactive)
- GI50 [27]: 0.321 µM (active)
- GI50 [28]: 3.94 µM (inactive)
- GI50 [29]: 2.46 µM (inactive)
- GI50 [30]: 2.68 µM (inactive)
- GI50 [31]: 1.61 µM (inactive)
- GI50 [32]: 2.7 µM (inactive)
- GI50 [33]: 4.24 µM (inactive)
- GI50 [34]: 1.97 µM (inactive)
- GI50 [35]: 4.06 µM (inactive)
- GI50 [36]: 1.04 µM (active)
- GI50 [37]: 1.65 µM (inactive)
- GI50 [38]: 0.0272 µM (active)
- GI50 [39]: 2.21 µM (inactive)
- GI50 [40]: 2.13 µM (inactive)
- GI50 [41]: 2.11 µM (inactive)
- GI50 [42]: 4.04 µM (inactive)
- GI50 [43]: 5.78 µM (inactive)
- GI50 [44]: 6.31 µM (inactive)
- GI50 [45]: 3.17 µM (inactive)
- GI50 [46]: 4.01 µM (inactive)
- GI50 [47]: 2.49 µM (inactive)
- GI50 [48]: 3.52 µM (inactive)
- GI50 [49]: 7.1 µM (inactive)
- GI50 [50]: 4.35 µM (inactive)
- GI50 [51]: 0.493 µM (active)
- GI50 [52]: 0.7 µM (active)
- GI50 [53]: 2.5 µM (inactive)
- GI50 [54]: 3.08 µM (inactive)
- GI50 [55]: 4.69 µM (inactive)
- GI50 [56]: 4.71 µM (inactive)
- GI50 [57]: 2.17 µM (inactive)

Structure (SMILES): S=c1c2ccccc2c(=S)n2n1CC=CC2
- GI50 [1]: > 100 µM (inactive)
- GI50 [2]: 76.2 µM (inactive)
- GI50 [3]: > 100 µM (inactive)
- GI50 [4]: > 100 µM (inactive)
- GI50 [5]: > 100 µM (inactive)
- GI50 [6]: > 100 µM (inactive)
- GI50 [7]: > 100 µM (inactive)
- GI50 [8]: > 100 µM (inactive)
- GI50 [9]: > 100 µM (inactive)
- GI50 [58]: > 100 µM (inactive)
- GI50 [10]: > 100 µM (inactive)
- GI50 [11]: > 100 µM (inactive)
- GI50 [12]: > 100 µM (inactive)
- GI50 [13]: > 100 µM
- GI50 [14]: > 100 µM (inactive)
- GI50 [15]: > 100 µM (inactive)
- GI50 [17]: > 100 µM (inactive)
- GI50 [18]: > 100 µM (inactive)
- GI50 [19]: > 100 µM (inactive)
- GI50 [20]: > 100 µM (inactive)
- GI50 [21]: > 100 µM (inactive)
- GI50 [22]: > 100 µM (inactive)
- GI50 [23]: > 100 µM (inactive)
- GI50 [24]: > 100 µM (inactive)
- GI50 [25]: > 100 µM (inactive)
- GI50 [26]: > 100 µM (inactive)
- GI50 [27]: > 100 µM (inactive)
- GI50 [28]: > 100 µM (inactive)
- GI50 [29]: > 100 µM (inactive)
- GI50 [30]: > 100 µM (inactive)
- GI50 [32]: 75.7 µM (inactive)
- GI50 [33]: > 100 µM (inactive)
- GI50 [34]: > 100 µM (inactive)
- GI50 [35]: > 100 µM (inactive)
- GI50 [36]: > 100 µM (inactive)
- GI50 [37]: > 100 µM (inactive)
- GI50 [38]: > 100 µM (inactive)
- GI50 [39]: > 100 µM (inactive)
- GI50 [40]: > 100 µM (inactive)
- GI50 [41]: > 100 µM (inactive)
- GI50 [42]: > 100 µM (inactive)
- GI50 [43]: > 100 µM (inactive)
- GI50 [44]: > 100 µM (inactive)
- GI50 [45]: > 100 µM (inactive)
- GI50 [46]: > 100 µM (inactive)
- GI50 [47]: > 100 µM (inactive)
- GI50 [48]: > 100 µM (inactive)
- GI50 [49]: 68.1 µM (inactive)
- GI50 [50]: > 100 µM (inactive)
- GI50 [52]: > 100 µM (inactive)
- GI50 [53]: > 100 µM (inactive)
- GI50 [54]: > 100 µM (inactive)
- GI50 [55]: > 100 µM (inactive)
- GI50 [56]: > 100 µM (inactive)
- GI50 [57]: > 100 µM (inactive)

Structure (SMILES): NCCCNCCS [WR-1065]
- GI50 [3]: > 100 µM (inactive)
- GI50 [5]: > 100 µM (inactive)
- GI50 [58]: > 100 µM (inactive)
- GI50 [10]: > 100 µM (inactive)
- GI50 [11]: > 100 µM (inactive)
- GI50 [13]: > 100 µM
- GI50 [14]: > 100 µM (inactive)
- GI50 [15]: > 100 µM (inactive)
- GI50 [17]: > 100 µM (inactive)
- GI50 [18]: > 100 µM (inactive)
- GI50 [20]: > 100 µM (inactive)
- GI50 [21]: > 100 µM (inactive)
- GI50 [22]: > 100 µM (inactive)
- GI50 [24]: > 100 µM (inactive)
- GI50 [25]: > 100 µM (inactive)
- GI50 [27]: > 100 µM (inactive)
- GI50 [34]: > 100 µM (inactive)
- GI50 [35]: > 100 µM (inactive)
- GI50 [36]: > 100 µM (inactive)
- GI50 [38]: > 100 µM (inactive)
- GI50 [39]: > 100 µM (inactive)
- GI50 [40]: > 100 µM (inactive)
- GI50 [41]: > 100 µM (inactive)
- GI50 [44]: > 100 µM (inactive)
- GI50 [45]: > 100 µM (inactive)
- GI50 [46]: > 100 µM (inactive)
- GI50 [47]: > 100 µM (inactive)
- GI50 [48]: > 100 µM (inactive)
- GI50 [50]: > 100 µM (inactive)
- GI50 [53]: > 100 µM (inactive)
- GI50 [54]: > 100 µM (inactive)
- GI50 [55]: > 100 µM (inactive)
- GI50 [56]: > 100 µM (inactive)
- GI50 [57]: > 100 µM (inactive)
- GI50 [59]: > 100 µM (inactive)

Structure (SMILES): CCN(CC)CC1c2ccccc2C(CNc2ccccc2)N1C (stereo not drawn)
- GI50 [1]: > 100 µM (inactive)
- GI50 [3]: > 100 µM (inactive)
- GI50 [4]: > 100 µM (inactive)
- GI50 [5]: 92 µM (inactive)
- GI50 [6]: 83.8 µM (inactive)
- GI50 [7]: > 100 µM (inactive)
- GI50 [8]: 70.8 µM (inactive)
- GI50 [9]: > 100 µM (inactive)
- GI50 [58]: > 100 µM (inactive)
- GI50 [10]: > 100 µM (inactive)
- GI50 [11]: > 100 µM (inactive)
- GI50 [13]: > 100 µM
- GI50 [14]: 29.6 µM (inactive)
- GI50 [16]: > 100 µM (inactive)
- GI50 [17]: 30.1 µM (inactive)
- GI50 [19]: > 100 µM (inactive)
- GI50 [20]: 57.8 µM (inactive)
- GI50 [21]: > 100 µM (inactive)
- GI50 [22]: > 100 µM (inactive)
- GI50 [23]: > 100 µM (inactive)
- GI50 [24]: > 100 µM (inactive)
- GI50 [25]: > 100 µM (inactive)
- GI50 [26]: > 100 µM (inactive)
- GI50 [27]: 80.4 µM (inactive)
- GI50 [28]: > 100 µM (inactive)
- GI50 [30]: > 100 µM (inactive)
- GI50 [31]: > 100 µM (inactive)
- GI50 [32]: > 100 µM (inactive)
- GI50 [33]: > 100 µM (inactive)
- GI50 [34]: > 100 µM (inactive)
- GI50 [35]: > 100 µM (inactive)
- GI50 [36]: > 100 µM (inactive)
- GI50 [37]: 80.7 µM (inactive)
- GI50 [38]: > 100 µM (inactive)
- GI50 [39]: > 100 µM (inactive)
- GI50 [40]: > 100 µM (inactive)
- GI50 [41]: > 100 µM (inactive)
- GI50 [43]: > 100 µM (inactive)
- GI50 [44]: > 100 µM (inactive)
- GI50 [45]: > 100 µM (inactive)
- GI50 [46]: > 100 µM (inactive)
- GI50 [47]: > 100 µM (inactive)
- GI50 [48]: > 100 µM (inactive)
- GI50 [49]: 49.3 µM (inactive)
- GI50 [50]: > 100 µM (inactive)
- GI50 [52]: > 100 µM (inactive)
- GI50 [53]: > 100 µM (inactive)
- GI50 [55]: > 100 µM (inactive)
- GI50 [56]: > 100 µM (inactive)
- GI50 [57]: > 100 µM (inactive)
- GI50 [59]: > 100 µM (inactive)
